These results are taken from patent publication US20220081415A1, “Amino Acid Derivatives for the Treatment of Inflammatory Diseases” (The Roskamp Institute, priority 2019, published 2022).

One experiment relates to NF-kB activation induced by TNFα. Briefly: TNFα Luciferase assay: inhibition of NF-kB activation induced by TNFα in HEK293/NF-kB luciferase cells. Format: cell-based. As to conditions: 25 ng/ml of TNF-α for four hours, quadruplicate, read-out: IC50, concentration at which NF-kB activation was reduced by 50%. The protocol:
Determination of Inhibition of NF-kB Activation Induced by TNFα . . . In Vitro Assay
The ability of a compound disclosed herein to inhibit NFkB activation induced by TNFα was determined using the TNFα Luciferase assay. The HEK293/NF-kB luciferase cell line was obtained by cotransfection of pNFkB-luc vector with pHyg (Panomics, CA, USA) followed by hygromycin selection. HEK293/NFkB Luciferase cells were grown in DMEM medium supplemented with 10% fetal bovine serum, 100 U/ml of penicillin, 100 ng/ml of streptomycin/Fungizone, and 100 μg/ml of hygromycin B as the selecting agent. HEK293 NFkB Luciferase cells were grown in T75 flasks (Nunc™ Cell Culture Treated EasYFlasks™) in a cell culture incubator at 37° C. and 5% CO2.
Confluent T75 cell culture flasks (approximately 8-10 million of cells per flask) were washed with 10 ml of sterile PBS (without calcium and magnesium) under a biosafety cabinet. After aspiration of the PBS with a sterile glass pipette, the layer of cells (for each T75 flask) was covered with 1 ml of TrypLE™ Express without phenol red (Gibco) at room temperature. After one minute of incubation, HEK293 were mechanically resuspended in the TrypLE by tapping the side of the flask. The cells were then resuspended with 10 ml of pre-warmed complete culture medium and transferred to a conical tube. Cells were centrifuged for 5 minutes at 4000 rpm (1000 g) at room temperature. The cellular pellet was resuspended with 24 ml of pre-warmed cell culture media and […] of cell suspension (approximately 80,000 cells per well) was plated per well in 96-well cell culture plates (Costar #3599, Corning, N.Y., USA) using a multichannel pipette and reversed pipetting to prevent air bubble formation. After plating, the cells were maintained overnight in the cell culture incubator before being treated. For each 96 well cell culture plate, 8 wells were used as “control wells” (only culture medium added) and to 8 wells only TNFα was added. The NF-kB Luciferase reporter cell line was challenged with 25 ng/ml of TNF-α for four hours in the presence and absence (control conditions) of a dose range of the different compounds to be tested. For each compound, a dose range of concentrations was tested in quadruplicate and used to determine an IC50.
Luciferase activity was monitored using the Luc-Screen® Extended-Glow Luciferase Reporter Gene Assay System by chemoluminescence according to the instruction of the manufacturer (Invitrogen) and a BioTek Synergy HT plate reader (BioTek Instruments, VT, USA).
For the compound `C[C@H](NC(=O)c1cccc([N+](=O)[O-])c1)C(=O)N1CC=CCC1c1cccnc1` (stereo partly drawn) [Compound 9], the IC50 was 200000 nM.

Staying with this experiment, now noted: Homo sapiens, 4 h, 25 ng/ml of TNF-α for four hours, quadruplicate, read-out: IC50, concentration at which NF-kB activation was reduced by 50%.
On to `CCOc1cccc(C(=O)N[C@@H](Cc2ccccc2)C(=O)N2CC=CCC2c2cccnc2)c1` (stereo partly drawn) [Compound 33, 3-ethoxy-N-((2S)-1-oxo-3-phenyl-1-(6-(pyridin-3-yl)-5,6-dihydropyridin-1(2H)-yl)propan-2-yl)benzamide], for which the IC50 was found to be 1800 nM.
The same measure, in the same setting: as for `O=C(NC(Cc1ccccc1)C(=O)N1CC=CCC1c1cccnc1)c1cccc(C(F)(F)F)c1` (stereo not drawn) [Compound 23, N-(1-oxo-3-phenyl-1-(6-(pyridin-3-yl)-5,6-dihydropyridin-1(2H)-yl)propan-2-yl)-3-(trifluoromethyl)benzamide], the figure is 6500 nM; as for `COc1ccc(C(=O)N[C@@H](C)C(=O)N2CC=CCC2c2cccnc2)cc1OC` (stereo partly drawn) [Compound 12, 3,4-dimethoxy-N-((2S)-1-oxo-1-(6-(pyridin-3-yl)-5,6-dihydropyridin-1(2H)-yl)propan-2-yl)benzamide], 470000 nM; as for `O=C1c2ccccc2C(=O)N1CC(=O)N1CC=CCC1c1cccnc1` (stereo not drawn) [Compound 8, 2-(2-oxo-2-(6-(pyridin-3-yl)-5,6-dihydropyridin-1(2H)-yl)ethyl)isoindoline-1,3-dione], 550000 nM.
`CC(C)(C)C(=O)Nc1cccc(C(=O)N[C@@H](Cc2ccccc2)C(=O)N2CC=CCC2c2cccnc2)c1` (stereo partly drawn) [Compound 43, N-((2S)-1-oxo-3-phenyl-1-(6-(pyridin-3-yl)-5,6-dihydropyridin-1(2H)-yl)propan-2-yl)-3-pivalamidobenzamide]: the IC50 was determined as 129 nM.
Consider `O=C(N[C@@H](Cc1ccccc1)C(=O)N1CC=CCC1c1cccnc1)c1ccc[nH]1` (stereo partly drawn) [Compound 56, N-((2S)-1-oxo-3-phenyl-1-(6-(pyridin-3-yl)-5,6-dihydropyridin-1(2H)-yl)propan-2-yl)-1H-pyrrole-2-carboxamide], for which the IC50 was 968 nM.
On the same count and under the same terms, next, `CCCC(=O)Nc1cccc(C(=O)N[C@@H](Cc2ccccc2)C(=O)N2CCCCC2c2cccnc2)c1` (stereo partly drawn) [Compound 63, 3-butyramido-N-((2S)-1-oxo-3-phenyl-1-(2-(pyridin-3-yl)piperidin-1-yl)propan-2-yl)benzamide]: 58.4 nM.
On to `O=C(N[C@@H](Cc1ccccc1)C(=O)N1CC=CCC1c1cccnc1)c1cccc(NC(=O)C2CCC2)c1` (stereo partly drawn) [Compound 45, 3-(cyclobutanecarboxamido)-N-((2S)-1-oxo-3-phenyl-1-(6-(pyridin-3-yl)-5,6-dihydropyridin-1(2H)-yl)propan-2-yl)benzamide], for which the IC50 was determined as 75.4 nM.
Same read-out and setting: as for `O=C(N[C@@H](Cc1ccccc1)C(=O)N1CC=CCC1c1cccnc1)c1ccco1` (stereo partly drawn) [Compound 52, N-((2S)-1-oxo-3-phenyl-1-(6-(pyridin-3-yl)-5,6-dihydropyridin-1(2H)-yl)propan-2-yl)furan-2-carboxamide], the figure is 134 nM; as for `COc1cc(F)cc(C(=O)NC(Cc2ccccc2)C(=O)N2CC=CCC2c2cccnc2)c1` (stereo not drawn) [Compound 24, 3-fluoro-5-methoxy-N-(1-oxo-3-phenyl-1-(6-(pyridin-3-yl)-5,6-dihydropyridin-1(2H)-yl)propan-2-yl)benzamide], 4000 nM.
Still for that read-out and setting: as for `CCCC(=O)Nc1cccc(C(=O)NC(C)C(=O)N2CC=CCC2c2cnc3ccccc3c2)c1` (stereo not drawn) [Compound 68, 3-butyramido-N-(1-oxo-1-(2-(quinolin-3-yl)-3,6-dihydropyridin-1(2H)-yl)propan-2-yl)benzamide], the figure is 850 nM.
